Experiment [1] deals with murine cytotoxic T-cell line, CT6. The experiment in a line: Cytokine-induced proliferation of the cytotoxic T-cell line CT6 / CT-6.1. The class given is cell-based. Particulars: added one hour prior to IL-2, thymidine at 48 hours. The procedure:
Another assay in this example was used to determine inhibitive activity of the inventive compounds on direct IL-2-induced proliferation in a murine cytotoxic T-cell line, CT6. The CT6 cell line is an IL-2-dependent cell line. IL-2 was removed from the medium for 24 hours prior to stimulation. […] 49, 50, 45, 43 or 41 were added at various concentrations. The cells were stimulated with IL-2 and amount of tritiated thymidine dye incorporated was measured 48 hours later.
In another related assay, inhibitory effects on CT6 cell proliferation is examined. CT6 cells are a murine IL-2 dependent, cytotoxic T cell line that proliferate in response to murine IL-2 (15 U/ml).
CT-6.1 cells were starved overnight and stimulated with IL-2 (20 ng/ml). Twenty hours later, cells were labeled for 4 hours with ^3H-TdR and counted by liquid scintillation.
CT6.1 cells were cultured with IL-2 with or without the addition of inventive compound no. 45 (2 µM) and viable cells counted for up to 8 days. On day 4, two cultures previously incubated with compound no. 45, were washed and recultured with fresh IL-2 with or without compound no. 45 (2 µM).
Procedurally, CT-6.1 cells were starved overnight and stimulated with either IL-2 (20 ng/ml), IL-4 (50 ng/ml) or IL-7 (25 ng/ml). ^3H-TdR was added at 20 hours, cells were harvested 4 hours later, and the incorporation of ^3H-TdR was determined.

Experiment [2] has as its system murine thymocyte proliferation. The experiment in a line: Thymocyte proliferation co-stimulated by ConA and IL-2 (tritiated thymidine). The experiment is classed as cell-based, Balb/C mice. The following applies: Mus musculus, Thymocyte, 96 h; ConA and IL-2 (15 U/ml), 4 days. The procedure: ConA, used to activate CD3, induces T-cell proliferation and differentiation. Thymuses, obtained from normal, female Balb/C mice, were dissociated and plated into 96-well plates at a density of 2 x 10^5 cells/well. ConA (0.25 mg/ml) and IL-2 (15 U/ml) were added to the wells. The cells were incubated for 4 days at 37°C. On day 4, the cells were pulsed with tritiated thymidine and incubated for an additional 4 hours. The amount of tritiated thymidine dye incorporated by the harvested cells was determined in a liquid scintillation counter. Drug doses (shown in figs. 1A and 1B) were added two hours prior to ConA and IL-2 activation.
Thymuses, obtained from normal, female Balb/C mice, were dissociated and plated into 96-well plates at a density of 2 x 10^5 cells/well. ConA (0.25 mg/ml) and IL-2 (15 U/ml) were added to the wells. The cells were incubated for 4 days at 37 °C. On day 4, the cells were pulsed with tritiated thymidine and incubated for an additional 4 hours. The amount of tritiated thymidine dye incorporated by the harvested cells was determined in a liquid scintillation counter. Doses (shown in figs. 26A, 26B and 26C) were added two hours prior to ConA and IL-2 activation.
In another in vitro protocol, thymocyte proliferation was induced by sub-mitogenic doses of Con A (0.25 µg/ml) and IL-2 (20 ng/ml). Cells were stimulated for 96 hours, prior to addition of ^3H-TdR for 4 hours. The cells were harvested and incorporation of ^3H-TdR was determined.
45 on co-stimulated thymocyte proliferation. In an assay procedure, murine thymocytes were stimulated with ConA and IL-2 with 1 µM compound no. 45 added either 1 hour prior to IL-2 (-1), simultaneous with IL-2 (0) or at various times following IL-2 addition (1-92 hour). At 92 hours the thymocytes were pulsed with ^3H-TdR, harvested and counted by scintillation 4 hours later.

A further experiment concerns Balb/3T3 cells. The experiment in a line: PDGF-induced proliferation of Balb/3T3 cells. The experiment is classed as cell-based, murine. The method, then:
Balb/3T3 cells respond vigorously to PDGF stimulation, and are useful in vitro models for further study of PDGF-induced proliferation. Disregulated PDGF-proliferative response has been linked to a variety of diseases, including, e.g., restenosis, atherosclerosis, fibrosis, and tumor cell angiogenesis. Cells were plated in low serum-containing medium for 24 hours prior to stimulation with various concentrations of inventive compound no. 45. PDGF-BB was added at constant 10 µM concentrations. Tritiated thymidine was added and cells harvested for scintillation counting 24 hours later. Figure 15 illustrates a dose response curve from this assay, including an IC50 value of approximately 0.08 µM, exemplifying inhibitory activity of the tested compound.
In another investigation similar to the Balb/3T3 proliferation assay of Example 32, IC50 and ID50 values for inventive compounds nos. 70, 45, 59 and 58 were determined. LD50 values were determined using a cytotoxicity assay, as in Example 32. In these assays, Balb/3T3 cells, stimulated with PDGF and treated with one of the above inventive compounds in a manner identical to the tritiated thymidine procedure above, were incubated instead with a viable dye BCECF, a fluorescent dye. Fluorescence was measured using a fluorescent plate reader. […] Figure 17 illustrates assay results by comparing […] value against LD50 values for the inventive compounds tested. Most compounds tested were non-cytotoxic yet were significant inhibitors of proliferation.
Inventive compounds nos. 77,7 and 78 were added at various concentrations one hour prior to PDGF stimulation. PDGF-BB was added at a constant 10 µM concentrations along with tritiated thymidine. The cells were allowed to incubate for one day, following addition of PDGF and tritiated thymidine. 24 Hours later, the cells were harvested and counted by liquid scintillation counting. Results for compounds nos.77, 7 and 78 are shown in figures 26A, 26B and 26C, respectively. Background counts were approximately 1% of control levels.
Results obtained for compound no. 50 in the PDGF-induced proliferation of Balb/3T3 cells (Example 32), reported in figure 28, illustrate the inhibitive properties of this compound on proliferation induced by PDGF, representing significant inhibition at concentrations as low as 2 µM. […] 50, are capable of reducing tumor cell growth by blocking oncogene-induced events.
Figure 66 reports that inventive compound no. 45 inhibited PDGF-induced murine BALB/3T3 proliferation. Procedurally, cells were rested overnight in 0.2% serum and stimulated with 25 ng/ml PDGF. Compound no. 45 was added 1 hour prior to stimulation. Cells were pulsed with ^3H-TdR 24 hours later and harvested for scintillation counting 4 hours later.
Figures 66A and 66B are a dose response and cytoxicity curves, respectively, for inhibition of proliferation in Balb/3T3 cells by inventive compound no. 58. In the assay protocol, cells were starved overnight in 0.5% serum containing medium, followed by stimulation with 20 ng/ml PDGF for 24 hours. The cells were labeled with ^3H-TdR for 4 hours and harvested and counted by scintillation. Figure 66B illustrates that inventive compound no.
Figure 68 illustrates an effect of the delayed addition of inventive compound no. 58 to Balb/3T3 proliferation in response to PDGF-BB. Cells were stimulated with PDGF (20 ng/ml) and inventive compound no. 58 added either simultaneous with PDGF (0) or at various times after addition of PDGF, up to 6 hours later. At 24 hours, the cells were pulsed with ^3H-TdR and counted by scintillation four hours later. […] 58 was added as late as 20 hours after PDGF.
Figure 69 illustrates that inventive compound no. […] In the assay protocol, cells were serum starved for 24 hours before adding either 20 ng/ml PDGF or 10% serum. The cells were pulsed with ^3HTdR 24 hours later. Inventive compound no.

In experiment [3] the test system is proliferative PMBC response to allogeneic stimulation. As to the kind of experiment: Two-way mixed lymphocyte reaction. The class given is cell-based. Particulars: Lymphocyte; figs. 2A-2C. The source says: This example illustrates therapeutic potential for various autoimmune and inflammatory diseases of the inventive compounds by comparing potency (inhibitive activity) with cytotoxicity data obtained using the following indicative assay procedures. In a mixed lymphocyte reaction assay of compounds nos. […] Compounds nos. […] 2A and 2B. Both compounds nos. […] 2C.
Compound no. […] Compound no.

The next experiment relates to CMV promoter activity. As to the kind of experiment: microbe, parasite or virus in culture. The following applies: transformed (adenovirus) cells. The class given is cell-based. An excerpt:
This example illustrates data of proliferative activity of various inventive compounds for inducing CMV promoter activity. The CMV promoter assay measures gene transcription and translation activity wherein any active compounds will have cytotoxic activity for inhibiting cellular protein synthesis in transformed (adenovirus) cells. Compound no. […]

The test system of the next experiment is mast cell degranulation. As to the kind of experiment: Serotonin release assay for inhibition of mast cell degranulation. The experiment is classed as cell-based. Particulars: Concentration 50 µM. The source says:
This assay provides an in vitro model for an allergy and asthma therapeutic product. […]

The subject of the next experiment is Human stromal cells. The experiment in a line: Stromal cell proliferation in response to PDGF-BB. The class given is cell-based. The following applies: 50 ng/ml PDGF-BB. The procedure: This assay is useful for predicting therapeutic activity for preventing or treating restenosis, atherosclerosis and coronary artery disease. Human stromal cells were starved in serum-free media for one day and then stimulated with 50 ng/ml PDGF-BB. Inventive compounds, at various concentrations, were added one hour prior to PDGF stimulation. PDGF and tritiated thymidine were added and the cells allowed to incubate for one day, following addition of the PDGF and thymidine. 24 Hours later, the cells were harvested and counted by liquid scintillation counting. Results for compounds nos. Background counts (i.e., starved cells) were approximately 1% of control levels. […] 30, 28, 29, 32 and 31, respectively.

Bounds are passed on as bounds.

As to `CCCCCCCCCCNCC(O)CCCCCCCn1c(=O)c2c(ncn2C)n(C)c1=O` (centres unmarked) [compound 41, 1-(9-Decylamino-8-hydroxynonyl)-3,7-dimethylxanthine], the “inhibition of direct IL-2-induced proliferation” value in experiment [1] is “inhibited direct IL-2-induced CT6 proliferation”.

Regarding `CCCCCCCCCCCCCCNCC(O)CCCCCCCn1c(=O)c2c(ncn2C)n(C)c1=O` (centres unmarked) [compound 43, 1-(9-Tetradecylamino-8-hydroxynonyl)-3,7-dimethylxanthine], the “inhibition of direct IL-2-induced proliferation” value in experiment [1] is “inhibited direct IL-2-induced CT6 proliferation”. One may read the IC50 as the concentration that inhibits the measured activity by half. Higher therefore signals lower potency. In turn, `CCCCCCCCNCC(O)CCCCCCCCC(=O)O` (centres unmarked) [compound 78, 11-Octylamino-10-hydroxyundecanoic acid] returned an IC50 in experiment [2] of 12.4 µM. Besides, the “inhibition of PDGF-induced proliferation” value in the experiment with Balb/3T3 cells is given as “inhibit Balb/3T3 proliferation”. In turn, `CCCCCCCCNCC(O)CCCCCCCCC(=O)NC` (centres unmarked) [compound 79, 11-Octylamino-10-hydroxyundecanoic acid N-methyl amide] gave an IC50 in experiment [2] of 10.6 µM. The same measure, in the same setting: with `CCCCCCCCNCC(O)CCCCCCCCC(=O)N(C)C` (centres unmarked) [compound 80, 11-Octylamino-10-hydroxyundecanoic acid N,N-dimethyl amide] the figure was 3.8 µM. Turning to `CCCNCC(O)CCCCNC(=O)CCCC(=O)NCCC` (centres unmarked) [compound no. 5, N^2-(5-hydroxy-6-(N^3-propyl)aminohexyl)-(N^1-propyl)glutaric acid], the IC50 in experiment [3] is more than 250 µM; with CMV promoter activity it was more than 500 µM. Turning to `CCCCCCCCNCC(O)CCCCCCCCCO` (centres unmarked) [compound no. 7, 1-Octylamino-2,11-undecadiol], in the experiment on Balb/3T3 cells, the “inhibition of PDGF-induced proliferation” value was “inhibit Balb/3T3 proliferation”. Turning to `CCCNCC(O)CCCCn1c(=O)ccn(C)c1=O` (centres unmarked) [compound no. 19, 3-(5-hydroxy-6-(N-propyl)aminohexyl)-1-methyluracil], the “% Inhibition” value in the experiment with mast cell degranulation was “inactive”. The compound also gave an IC50 in the experiment with CMV promoter activity of more than 500 µM.

For `CCCNCC(O)CCCCn1c(=O)c(C)cn(C)c1=O` (centres unmarked) [compound no. 26, 3-(6-Propylamino-5-hydroxyhexyl)-1-methylthymine], the IC50 in experiment [3] is more than 250 µM; with CMV promoter activity, more than 500 µM. Take `Cn1cnc2c1c(=O)n(CCCCC(O)CNCCCCc1ccccc1)c(=O)n2C` (centres unmarked) [compound no. 29, 1-(5-hydroxy-6-(N-(4-phenyl)butyl)aminohexyl)-3,7-dimethylxanthine]: the IC50 in the experiment on CMV promoter activity is more than 100 µM; with Human stromal cells, 40 µM. For the compound `Cn1cnc2c1c(=O)n(CCCCC(O)CNCC1CCCCC1)c(=O)n2C` (centres unmarked) [compound no. 31, 1-(5-hydroxy-6-(N-cyclohexylmethyl)aminohexyl)-3,7-dimethylxanthine], the IC50 is more than 100 µM with CMV promoter activity and more than 50 µM in the experiment with Human stromal cells. Consider `Cn1cnc2c1c(=O)n(CCCCC(O)CNCCCCCCO)c(=O)n2C` (centres unmarked) [compound no. 32, 1-(5-hydroxy-6-(N-(6-hydroxy)hexyl)aminohexyl)-3,7-dimethylxanthine], for which the half-inhibitory concentration (IC50) is more than 100 µM in the experiment with CMV promoter activity and more than 50 µM with Human stromal cells. As for `CCCCCCCCNCC(O)CCCCCCCCCN(C)C(C)=O` (centres unmarked) [compound no. 77], in the experiment on Balb/3T3 cells, the “inhibition of PDGF-induced proliferation” value is recorded as “inhibit Balb/3T3 proliferation”.

The record behind these values is EP0719267B1, “SECOND MESSENGER CELL SIGNALING INHIBITORS” (CELL THERAPEUTICS, INC., priority 1993, dated 1994).
